Patent US20260184766A1 (priority 2022, published 2026)

Tests used:
[1] = target: biotinylated RBD (Severe acute respiratory syndrome coronavirus 2, UniProt P0DTC2)
[2] = target: biotinylated RBD (Wuhan-Hu-1) (Severe acute respiratory syndrome coronavirus 2, UniProt P0DTC2)
[3] = system: pseudotyped virus carrying SARS-CoV-2 (Wuhan-Hu-1) wild-type (WT) spike protein; assay type: cell-based; conditions: for EC50: read-out: Virus Neutralization Pseudovirus (nM) Wild-type
[4] = system: pseudotyped virus carrying S protein of a SARS-CoV-2 delta lineage virus; assay type: cell-based; conditions: read-out: Virus Neutralization Pseudovirus (nM) Delta

Sequence | binding of coated CDR3-knob to biotinylated RBD, in words [2] | EC50 [4] [nM] | EC50 [3] [nM] | further results
EGDKTCPDGYEHTCGCIGGCGCKRSACIGALCCQASLGGWLSDGETYTYEF [G3 Knob] | showed binding |  |  | binding to RBD after heat and SDS treatment [1]: maintained binding; RBD binding relative to reference anti-spike protein antibody CR3022 [2]: increased; neutralization potency of CDR3-knob only antibody, in words [3]: subnanomolar potency
GGSCPDGYEHTCGCIGGCGCKRSACIGALCCQASLGGWLSD [G3 NTRUNC5] | did not correlate with any reduction in binding activity |  |  | 
GGSEGDKTCPDGYEHTCGCIGGCGCKRSACIGALCCQASLGGW [G3 TRUNC3B] | reduced binding |  |  | 
GGSEGDKTCPDGYEHTCGCIGGCGCKRSACIGALCCQASLGGWL [G3 TRUNC3A] | reduced binding |  |  | 
HWTCPDGYEHTCGCIGGCGCKRSACIGALCCQASLGGWLSDSF [2G3 knob HWSF] |  | 21.2 ± 22.9 | 0.15 ± 0.03 | 
ISTCPDGYEHTCGCIGGCGCKRSACIGALCCQASLGGWLSDTV [2G3 knob ISTV] |  | 56 ± 7.02 | 0.12 ± 0.03 | 
TCPDGYEHTCGCIGGCGCKRSACIGALCCQASLGGWLSD [2G3 Knob] |  | 71.3 ± 37.2 | 1.3 ± 0.3 | 
